Data set [1] can be described thus: investigations into the gastrointestinal resorption of carvedilol. The format is in vivo. The following applies: passage through the gastrointestinal tract.
A short description of data set [2]: resorption after peroral administration of rapid release carvedilol formulations. Conditions: e.g. the commercial formulation. The format is in vivo. The text has this:
In the case of the peroral administration of rapid release carvedilol formulations, e.g. the commercial formulation, resorption quotas of up to 80% are achieved, with a considerable part of the resorbed carvedilol being very rapidly metabolized.

A short description of data set [3]: solubility of carvedilol in aqueous media. The format is physicochemical. The following applies: about pH 1-2.
Data set [4] can be described thus: dissolution of carvedilol in melted polyethylene glycol 6,000. The format is physicochemical. The following applies: polyethylene glycol 6,000 melted at about 70° C. The protocol: Thus, carvedilol can be dissolved in polyethylene glycol 6,000 which is melted at about 70° C. In this manner there are obtained highly concentrated solutions of carvedilol (up to 500 mg/ml), with the carvedilol being present distributed as a molecular dispersion in the solution. Moreover, further additives, for example cellulose derivatives such as hydroxypropylmethylcelluloses or hydroxypropylcelluloses, can be admixed in order to control the release rate of the active substance. Further, the compositions in accordance with the invention can contain highly dispersed silicon dioxide as an anti-caking agent.

Consider `COc1ccccc1OCCNCC(O)COc1cccc2[nH]c3ccccc3c12` (stereo not shown) [carvedilol, 1-(4-carbazolyloxy)-3-[2-(2-methoxyphenoxy)ethyl-amino]-2-propanol], for which, in data set [1], the “resorption in the ileum and colon relative to the stomach” value is recorded as “only a fraction of the resorption in the stomach”. Further, the resorption quota result in data set [2] is “up to 80%”. Moreover, the “solubility in the strongly acidic region” value in data set [3] was “very low solubility”. In addition, the “concentration of the carvedilol solution (molecular dispersion)” value in data set [4] is “up to 500 mg/ml”.

Values taken from patent US20050271721A1, “Carvedilol-hydrophilic solutions” (priority 2000, published 2005).
